According to patent publication US20250179078A1, “INHIBITORS OF NLRP3” (PTC THERAPEUTICS, INC., priority 2022, published 2025):

Biological target: T1, NLRP3 (Homo sapiens, UniProt Q96P20)
T1 construct: host or cells: THP-1 cells differentiated with PMA
Experiment: IL-1β Secretion Assay (NLRP3-dependent IL1β secretion in THP1 cells)
Format: cell-based
Settings: PMA-differentiated THP-1 cells; compounds incubated 20 h; 2.5 μM Nigericin 3 h; HTRF IL-1β readout; read-out: IC50 IL-1β Inhibition
Protocol: Monocytic THP-1 cells (ATCC: TIB-202) were maintained in growth media consisting of RPMI 1640 medium (ThermoFisher, Cat #11875-085), 10% FBS (ThermoFisher) and 0.05 mM β-mercaptoethanol (ThermoFisher, Cat #21985-023), according to the provider's instructions. The cell concentration was adjusted to 7.5×10^5 cells/mL, and plated in complete growth media with a final concentration of 100 ng/mL phorbol 12-myristate 13-acetate (PMA, Sigma #P8139). Cells were seeded at 100 µL/well into a 96-well cell culture plate (ThermoFisher Cat #165305) and allowed to differentiate for 24 h in a cell culture incubator at 37° C. with 5% CO2. Cells were washed 1× with 100 ul PBS and replaced with fresh RPMI+5% FBS. Compounds were serial diluted in DMSO with 3 fold dilution for a total of 7 concentrations. Diluted compounds were added to the cells at a ratio of 1:200 and incubated for 20 h. The NLRP3 inflammasome was activated with the addition of 2.5 μM Nigericin (Sigma: Cat #SML1779-1 ml), for 3 h. After incubation, 15 μL of conditioned media was removed and assayed for levels of IL-1β using the HTRF IL-1β assay kit (Cisbio: Cat #62HIL1BPEH) as per the manufacturer's instructions.
Compounds, once produced and prepared according to the present invention, can be assessed in variety of assays to characterize their activities. For example, NLRP3-dependent IL1β secretion was evaluated in THP1 cells. IC50 values of IL1β inhibition were calculated from the plot of percentage of inhibition versus the inhibitor concentration by a logistics fit. TABLE I depict examples of compounds according to generic Formula I. Data which is <1 nM is listed as *****; data 1-10 nM is listed as ****; data 10-100 nM is listed as ***, data 100-300 nM is listed as **, data ≥300 nM is listed as *.

T1 sequence (Q96P20 whole entry): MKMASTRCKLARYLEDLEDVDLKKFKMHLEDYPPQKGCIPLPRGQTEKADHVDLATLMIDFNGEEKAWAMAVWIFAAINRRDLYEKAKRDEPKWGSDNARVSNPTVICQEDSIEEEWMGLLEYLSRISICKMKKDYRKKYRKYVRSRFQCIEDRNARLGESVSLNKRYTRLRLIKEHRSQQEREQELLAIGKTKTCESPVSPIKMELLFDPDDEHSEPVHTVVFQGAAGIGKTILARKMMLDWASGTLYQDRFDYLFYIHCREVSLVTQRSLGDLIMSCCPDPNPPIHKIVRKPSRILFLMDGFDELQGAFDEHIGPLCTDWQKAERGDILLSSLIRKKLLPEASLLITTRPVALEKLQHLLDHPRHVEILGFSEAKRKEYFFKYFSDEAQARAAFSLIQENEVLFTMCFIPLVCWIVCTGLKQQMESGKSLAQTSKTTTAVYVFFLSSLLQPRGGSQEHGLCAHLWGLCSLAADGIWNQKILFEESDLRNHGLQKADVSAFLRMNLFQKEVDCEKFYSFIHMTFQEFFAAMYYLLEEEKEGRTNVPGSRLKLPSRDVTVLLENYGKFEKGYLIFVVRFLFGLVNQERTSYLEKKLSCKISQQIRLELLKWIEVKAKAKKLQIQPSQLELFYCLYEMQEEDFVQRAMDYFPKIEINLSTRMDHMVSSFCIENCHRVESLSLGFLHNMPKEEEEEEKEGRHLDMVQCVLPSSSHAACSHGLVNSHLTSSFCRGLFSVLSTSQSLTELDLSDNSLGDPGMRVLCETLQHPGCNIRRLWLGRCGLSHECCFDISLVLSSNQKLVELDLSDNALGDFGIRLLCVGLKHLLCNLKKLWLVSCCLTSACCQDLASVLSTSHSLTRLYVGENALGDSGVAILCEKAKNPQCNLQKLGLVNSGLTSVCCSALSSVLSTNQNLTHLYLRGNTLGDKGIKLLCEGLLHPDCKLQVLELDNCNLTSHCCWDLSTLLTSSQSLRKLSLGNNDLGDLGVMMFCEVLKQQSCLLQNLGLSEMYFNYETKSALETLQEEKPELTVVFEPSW

Row | IC50 | Structure (SMILES)
1 | 0.01 to 0.1 µM | FC(F)(F)c1ccc(-c2nnc(N[C@@H]3CCCOC3)n3cncc23)c(C(F)(F)F)c1 [Compound 254, 1-[2,4-bis(trifluoromethyl)phenyl]-N-[(3R)-oxan-3-yl]imidazo[1,5-d][1,2,4]triazin-4-amine]
2 | 0.001 to 0.01 µM | COc1ccc(-c2nnc(NC3CCNC3=O)n3cc(C)cc23)c(OC(F)(F)F)c1 (centres unmarked) [Compound 162, 3-({1-[4-methoxy-2-(trifluoromethoxy)phenyl]-7-methylpyrrolo[1,2-d][1,2,4]triazin-4-yl}amino)pyrrolidin-2-one]
3 | 0.01 to 0.1 µM | Cc1cc2c(-c3ccc(Cl)cc3C(F)F)nnc(N[C@@H]3CCCN(C)C3)n2c1 [Compound 11, 1-[4-chloro-2-(difluoromethyl)phenyl]-7-methyl-N-[(3R)-1-methylpiperidin-3-yl]pyrrolo[1,2-d][1,2,4]triazin-4-amine]
4 | 0.01 to 0.1 µM | O=C1NCCCC1Nc1nnc(-c2ccc(C(F)(F)F)cc2C(F)(F)F)c2cncn12 (centres unmarked) [Compound 276, 3-({1-[2,4-bis(trifluoromethyl)phenyl]imidazo[1,5-d][1,2,4]triazin-4-yl}amino)piperidin-2-one]
5 | 0.001 to 0.01 µM | COc1ccc(-c2nnc(N[C@@H]3CCCC[C@@]3(C)O)n3cncc23)c(OC(F)(F)F)c1 (single isomer, unassigned) [Compound 311]
6 | 0.001 to 0.01 µM | CCN1CCC[C@@H](Nc2nnc(-c3ccc(Cl)cc3)c3cc(C)nn23)C1 [Compound 377, 4-(4-chlorophenyl)-N-[(3R)-1-ethylpiperidin-3-yl]-2-methylpyrazolo[1,5-d][1,2,4]triazin-7-amine]
7 | 0.001 to 0.01 µM | Oc1cccc(CNc2nnc(-c3ccc(C(F)(F)F)cc3OC(F)F)c3cccn23)c1 [Compound 101, 3-[{{1-[2-(difluoromethoxy)-4-(trifluoromethyl)phenyl]pyrrolo[1,2-d][1,2,4]triazin-4-yl}amino)methyl]phenol]
8 | < 0.001 µM | CCN1C[C@H](F)C[C@@H](Nc2nnc(-c3ccc(C(F)(F)F)cc3OC(F)F)c3cc(C)nn23)C1 [Compound 356, 4-[2-(difluoromethoxy)-4-(trifluoromethyl)phenyl]-N-[(3R,5R)-1-ethyl-5-fluoropiperidin-3-yl]-2-methylpyrazolo[1,5-d][1,2,4]triazin-7-amine]
9 | 0.001 to 0.01 µM | C[C@]1(O)C[C@@H](Nc2nnc(-c3ccc(C(F)(F)F)cc3OC(F)(F)F)c3cccn23)C1 [Compound 123, (1s,3s)-1-methyl-3-({1-[2-(trifluoromethoxy)-4-(trifluoromethyl)phenyl]pyrrolo[1,2-d][1,2,4]triazin-4-yl}amino)cyclobutan-1-ol]
10 | 0.001 to 0.01 µM | Cc1ccc(-c2nnc(N[C@H]3C[C@@](C)(O)C3)n3cncc23)c(CC(F)(F)F)c1 [Compound 318, (1s,3s)-1-methyl-3-({1-[4-methyl-2-(2,2,2-trifluoroethyl)phenyl]imidazo[1,5-d][1,2,4]triazin-4-yl}amino)cyclobutan-1-ol]
11 | 0.001 to 0.01 µM | COc1ccc(-c2nnc(N[C@@H]3CCCC[C@H]3O)n3cncc23)c(CC(F)(F)F)c1 [Compound 237, (1R,2R)-2-({1-[4-methoxy-2-(2,2,2-trifluoroethyl)phenyl]imidazo[1,5-d][1,2,4]triazin-4-yl}amino)cyclohexan-1-ol]
12 | < 0.001 µM | COc1ccc(-c2nnc(N[C@@H]3CCCN(CCO)C3)n3cncc23)c(CC(F)(F)F)c1 [Compound 278, 2-[(3R)-3-({1-[4-methoxy-2-(2,2,2-trifluoroethyl)phenyl]imidazo[1,5-d][1,2,4]triazin-4-yl}amino)piperidin-1-yl]ethan-1-ol]
13 | 0.001 to 0.01 µM | O=C1NCCC1Nc1nnc(-c2ccc(C(F)(F)F)cc2CC(F)(F)F)c2cccn12 (centres unmarked) [Compound 77, 3-({1-[2-(2,2,2-trifluoroethyl)-4-(trifluoromethyl)phenyl]pyrrolo[1,2-d][1,2,4]triazin-4-yl}amino)pyrrolidin-2-one]
14 | 0.01 to 0.1 µM | O[C@H]1CCCC[C@@H]1Nc1nnc(-c2ccc(C(F)(F)F)cc2OC(F)F)c2cccn12 [Compound 78, (1S,2S)-2-({1-[2-(difluoromethoxy)-4-(trifluoromethyl)phenyl]pyrrolo[1,2-d][1,2,4]triazin-4-yl}amino)cyclohexan-1-ol]
15 | < 0.001 µM | CN1CCC[C@@H](Nc2nnc(-c3ccc(C4CC4)cc3C(F)(F)F)c3cncn23)C1 [Compound 207, 1-[4-cyclopropyl-2-(trifluoromethyl)phenyl]-N-[(3R)-1-methylpiperidin-3-yl]imidazo[1,5-d][1,2,4]triazin-4-amine]
16 | 0.001 to 0.01 µM | COc1ccc(-c2nnc(N[C@H]3C[C@@](C)(O)C3)n3cncc23)c(OC(F)(F)F)c1 [Compound 219, (1s,3s)-3-({1-[4-methoxy-2-(trifluoromethoxy)phenyl]imidazo[1,5-d][1,2,4]triazin-4-yl}amino)-1-methylcyclobutan-1-ol]
17 | 0.1 to 0.3 µM | FC(F)(F)Oc1cc(C(F)(F)F)ccc1-c1nnc(Nc2cc[nH]n2)n2cccc12 [Compound 150, N-(1H-pyrazol-3-yl)-1-[2-(trifluoromethoxy)-4-(trifluoromethyl)phenyl]pyrrolo[1,2-d][1,2,4]triazin-4-amine]
18 | 0.01 to 0.1 µM | CCN1CCC[C@@H](Nc2nnc(-c3ccc(OC)c(OC)c3OC)c3cc(C)nn23)C1 [Compound 370, N-[(3R)-1-ethylpiperidin-3-yl]-2-methyl-4-(2,3,4-trimethoxyphenyl)pyrazolo[1,5-d][1,2,4]triazin-7-amine]
19 | 0.01 to 0.1 µM | O[C@H]1CCCC[C@@H]1Nc1nnc(-c2ccc(C(F)(F)F)cc2C(F)(F)F)c2cncn12 [Compound 293, (1S,2S)-2-({1-[2,4-bis(trifluoromethyl)phenyl]imidazo[1,5-d][1,2,4]triazin-4-yl}amino)cyclohexan-1-ol]
20 | 0.001 to 0.01 µM | Cc1ccc(-c2nnc(NC3CCNC3=O)n3cncc23)c(CC(F)(F)F)c1 (centres unmarked) [Compound 288, 3-({1-[4-methyl-2-(2,2,2-trifluoroethyl)phenyl]imidazo[1,5-d][1,2,4]triazin-4-yl}amino)pyrrolidin-2-one]
21 | 0.001 to 0.01 µM | O[C@@H]1CCCC[C@H]1Nc1nnc(-c2ccc(C(F)(F)F)cc2OC(F)(F)F)c2cccn12 [Compound 151, (1R,2R)-2-({1-[2-(trifluoromethoxy)-4-(trifluoromethyl)phenyl]pyrrolo[1,2-d][1,2,4]triazin-4-yl}amino)cyclohexan-1-ol]
22 | < 0.001 µM | CN1CCC[C@@H](Nc2nnc(-c3ccc(Cl)cc3OC(F)F)c3cncn23)C1 [Compound 190, 1-[4-chloro-2-(difluoromethoxy)phenyl]-N-[(3R)-1-methylpiperidin-3-yl]imidazo[1,5-d][1,2,4]triazin-4-amine]
23 | < 0.001 µM | OCCN1CCC[C@@H](Nc2nnc(-c3ccc(C(F)(F)F)cc3OC(F)(F)F)c3cccn23)C1 [Compound 120, 2-[(3R)-3-({1-[2-(trifluoromethoxy)-4-(trifluoromethyl)phenyl]pyrrolo[1,2-d][1,2,4]triazin-4-yl}amino)piperidin-1-yl]ethan-1-ol]
24 | 0.01 to 0.1 µM | C[C@H](O)CNc1nnc(-c2ccc(C(F)(F)F)cc2OC(F)F)c2c(F)ccn12 [Compound 16, (2S)-1-({1-[2-(difluoromethoxy)-4-(trifluoromethyl)phenyl]-8-fluoropyrrolo[1,2-d][1,2,4]triazin-4-yl}amino)propan-2-ol]
25 | 0.001 to 0.01 µM | O=C1NCCC1Nc1nnc(-c2ccc(C(F)(F)F)cc2C(F)(F)F)c2cncn12 (centres unmarked) [Compound 294, 3-({1-[2,4-bis(trifluoromethyl)phenyl]imidazo[1,5-d][1,2,4]triazin-4-yl}amino)pyrrolidin-2-one]
26 | 0.001 to 0.01 µM | CCN1CCC[C@@H](Nc2nnc(-c3ccc(OC)cc3OC(F)(F)F)c3cc(C)nn23)C1 [Compound 371, N-[(3R)-1-ethylpiperidin-3-yl]-4-[4-methoxy-2-(trifluoromethoxy)phenyl]-2-methylpyrazolo[1,5-d][1,2,4]triazin-7-amine]
27 | 0.001 to 0.01 µM | OC[C@H]1C[C@@H](Nc2nnc(-c3ccc(C4CC4)cc3CC(F)(F)F)c3cncn23)C1 [Compound 349, [(1s,3s)-3-({1-[4-cyclopropyl-2-(2,2,2-trifluoroethyl)phenyl]imidazo[1,5-d][1,2,4]triazin-4-yl}amino)cyclobutyl]methanol]
28 | < 0.001 µM | CCN1CCC[C@@H](Nc2nnc(-c3ccc(C(F)(F)F)cc3OC(F)(F)F)c3cccn23)C1 [Compound 119, N-[(3R)-1-ethylpiperidin-3-yl]-1-[2-(trifluoromethoxy)-4-(trifluoromethyl)phenyl]pyrrolo[1,2-d][1,2,4]triazin-4-amine]
29 | 0.01 to 0.1 µM | FC(F)(F)c1ccc(-c2nnc(Nc3cc[nH]n3)n3cncc23)c(C(F)(F)F)c1 [Compound 285, 1-[2,4-bis(trifluoromethyl)phenyl]-N-(1H-pyrazol-3-yl)imidazo[1,5-d][1,2,4]triazin-4-amine]
